This note sets out measurements from US11390631B1, “Benzodiazepine derivatives as RSV inhibitors” (priority 2015, dated 2022).

Where only a bound is given, the exact number is not on record here.

This experiment relates to Human RSV-A (“Long” strain). In words: RSV-A assay: inhibition of cytopathic effect in Hep-2 cells, ATPlite readout. Format: cell-based, Human respiratory syncytial virus (HRSV). The conditions noted are these: human respiratory syncytial virus, HEp-2, 120 h, read-out: Human RSV-A (“Long” strain) EC50. From the text:
Hep-2 cells, (originally derived from tumors grown in irradiated-cortisonised weanling rats that had been injected with epidermoid carcinoma tissue from a person's larynx, but later found to be indistinguishable from HeLa cells by PCR DNA analysis), were used for the culturing of genotype A, “Long” strain RSV. Flasks were inoculated with RSV and viral stocks were collected once cytopathic effect (CPE) was greater than 90%. Viral stocks in 25% sucrose media were snap frozen using liquid nitrogen to increase viral stability. Viral stock titers were quantified by tissue culture infectious dose 50% (TCID50) using 8,000 cells per well and 3-fold viral dilutions across a 96-well plate, cultured for 4 days. Viral stock titers were also quantified by a plaque forming unit assay, as described elsewhere.
Following extensive parameter testing, the final assay is run as follows: Hep-2 cells are seeded into the inner 60 wells of a 96-well plate at 8,000 cells per well in a volume of 50 μL using Growth Media (DMEM without phenol red, 1% L-Glut, 1% Penn/Strep, 1% nonessential amino acids, 10% heat-inactivated FBS). 2-fold serial dilutions of control and test compounds are added to the wells in duplicate in a total volume of 25 μL. Viral stock is then added to the wells at a multiplicity of infection (MOI) of 0.1 in a volume of 25 μL, bringing the total volume of each well to 100 μL. The MOI is calculated using the PFU/mL, or TCID50 if unavailable. Each 96-well plate has a control column of 6 wells with cells and virus but no compound (negative control, max CPE), a column with cells but no compound or virus (positive control, minimum CPE), and a column with no cells or virus or compound (background plate/reagent control). The control wells with cells but no virus are given an additional 25 uL of growth media containing an equal quantity of sucrose as those wells receiving the viral stock in order to keep consistent in media and volume conditions. The outer wells of the plate are filled with 125 μL of moat media (DMEM, 1% Penn/Strep) to act as a thermal and evaporative moat around the test wells. Following a 5-day incubation period, the plates are read using ATPlite (50 uL added per well), which quantifies the amount of ATP (a measure of cell health) present in each well. Assay plates are read using the Envision luminometer. In parallel, cytotoxicity is examined on an additional 96-well plate treated in an identical manner, but substituting the 25 μL of viral stock for 25 μL of growth media. […] EC50 ranges are as follows: A<0.4 μM; B 0.4-0.8 μM; C>0.8 μM and CC50 ranges are as follows: A>50 μM; B 10-50 μM; C<10 μM.
Regarding `O=C1Nc2ccccc2C(c2ccccc2)=N[C@@H]1Nc1nnc(-c2cnc(N3CCOCC3)cn2)o1` [Example 161], the EC50 was > 800 nM.

Regarding `O=C1Nc2ccccc2C(c2ccccc2)=N[C@@H]1Nc1nnc(-c2cnc(C(F)(F)F)nc2N2CCOCC2)o1` [Example 162], the EC50 was < 400 nM.

Turning to `O=C1Nc2ccccc2C(c2ccccc2)=N[C@@H]1Nc1nnc(-c2nc3ccccn3c2N2CCOCC2)o1` [Example 163], the EC50 was > 800 nM.

Regarding `Cn1cc(N2CCOCC2)c(-c2nnc(N[C@H]3N=C(c4ccccc4)c4ccccc4NC3=O)o2)n1` [Example 164], the concentration for a half-maximal effect (EC50) was < 400 nM.

On to `O=C1Nc2ccccc2C(c2ccccc2)=N[C@@H]1Nc1nnc(-c2cnc(N3CCOCC3)nc2)o1` [Example 165], for which the EC50 was in the range of 400 to 800 nM.

Take `O=C1Nc2ccccc2C(c2ccccc2)=N[C@@H]1Nc1nnc(-c2cnc(N3CC4CCC(C3)O4)nc2)o1` [Example 166]: the EC50 was > 800 nM.

In the case of `O=C1Nc2ccccc2C(c2ccccc2)=N[C@@H]1Nc1nnc(-c2cnc(C3CC3)nc2N2CCOCC2)o1` [Example 167], the EC50 was < 400 nM.

Regarding `O=C1Nc2ccccc2C(c2ccccc2)=N[C@@H]1Nc1nnc(-c2cnc(-n3cccn3)nc2N2CCOCC2)o1` [Example 172], the EC50 was > 800 nM.

As for `O=C1Nc2ccccc2C(c2ccccc2)=N[C@@H]1Nc1nnc(-c2cnc(-n3cncn3)nc2N2CCOCC2)o1` [Example 173], the EC50 was > 800 nM.

As to `N#Cc1cnc(N2CCOCC2)c(-c2nnc(N[C@H]3N=C(c4ccccc4)c4ccccc4NC3=O)o2)c1` [Example 174], the EC50 was < 400 nM.

As for `CCc1nc(N2CCOCC2)c(-c2nnc(N[C@H]3N=C(c4ccccc4)c4ccccc4NC3=O)o2)cc1C#N` [Example 176], the EC50 was < 400 nM.

In the case of `Cn1ncc(-c2nnc(N[C@H]3N=C(c4ccccc4)c4ccccc4NC3=O)o2)c1N1CCOCC1` [Example 177], the EC50 is > 800 nM.

For the compound `Cn1ncc(N2CCOCC2)c1-c1nnc(N[C@H]2N=C(c3ccccc3)c3ccccc3NC2=O)o1` [Example 178], the EC50 was 400 to 800 nM.

As to `O=C1Nc2ccccc2C(c2ccccc2)=N[C@@H]1Nc1nnc(-c2sc3ncccc3c2N2CCOCC2)o1` [Example 180], the EC50 is < 400 nM.

In the case of `Cn1cc(-c2nnc(N[C@H]3N=C(c4ccccc4)c4ccccc4NC3=O)o2)c(N2CCOCC2)n1` [Example 181], the EC50 is < 400 nM.

Take `O=C1Nc2ccccc2C(c2ccccc2)=N[C@@H]1Nc1nnc(-c2sc(Br)cc2N2CCOCC2)o1` [Example 182]: the EC50 is < 400 nM.

Take `N#Cc1ccc(-c2nnc(NC3N=C(c4ccccc4)c4ccccc4NC3=O)o2)s1` (stereo not shown) [Example 183]: the EC50 was < 400 nM.

As for `O=C1Nc2ccccc2C(c2ccccc2)=NC1Nc1nnc(-c2ccc(N3CCCC3)cc2)o1` (stereo not shown) [Example 184], the concentration giving a half-maximal response (EC50) lay within 400 to 800 nM.

With `COc1cnc(-c2nnc(NC3N=C(c4ccccc4)c4ccccc4NC3=O)o2)c(F)c1` (stereo not shown) [Example 185], the concentration giving a half-maximal response (EC50) was > 800 nM.

`Cn1nnc(-c2ccc(-c3nnc(NC4N=C(c5ccccc5)c5ccccc5NC4=O)o3)cc2)n1` (stereo not shown) [Example 186]: the EC50 was > 800 nM.

Consider `Cc1nc2ccc(-c3nnc(NC4N=C(c5ccccc5)c5ccccc5NC4=O)o3)cc2s1` (stereo not shown) [Example 187], for which the EC50 fell in the range of 400 to 800 nM.

In the case of `CC(C)c1nnc(NC2N=C(c3ccccc3)c3ccccc3NC2=O)o1` (stereo not shown) [Example 188], the EC50 was > 800 nM.

As to `CC(C)(C)c1nnc(NC2N=C(c3ccccc3)c3ccccc3NC2=O)o1` (stereo not shown) [Example 189], the EC50 is > 800 nM.

On to `CCCc1nnc(NC2N=C(c3ccccc3)c3ccccc3NC2=O)o1` (stereo not shown) [Example 190], for which the EC50 is > 800 nM.

With `COCc1nnc(NC2N=C(c3ccccc3)c3ccccc3NC2=O)o1` (stereo not shown) [Example 191], the EC50 is > 800 nM.

On to `O=C1Nc2ccccc2C(c2ccccc2)=NC1Nc1nnc(CCC(F)(F)F)o1` (stereo not shown) [Example 192], for which the half-maximal effective concentration (EC50) is > 800 nM.

`N#CCCc1nnc(NC2N=C(c3ccccc3)c3ccccc3NC2=O)o1` (stereo not shown) [Example 193]: the concentration for a half-maximal effect (EC50) is > 800 nM.

Turning to `CS(=O)(=O)Cc1nnc(NC2N=C(c3ccccc3)c3ccccc3NC2=O)o1` (stereo not shown) [Example 194], the EC50 was > 800 nM.

`CC1(c2nnc(NC3N=C(c4ccccc4)c4ccccc4NC3=O)o2)CC1` (stereo not shown) [Example 195]: the EC50 was > 800 nM.

Consider `O=C1Nc2ccccc2C(c2ccccc2)=NC1Nc1nnc(C2CCC2)o1` (stereo not shown) [Example 196], for which the EC50 is > 800 nM.

With `O=C1Nc2ccccc2C(c2ccccc2)=NC1Nc1nnc(C2CCCC2)o1` (stereo not shown) [Example 197], the EC50 is > 800 nM.

With `O=C1Nc2ccccc2C(c2ccccc2)=NC1Nc1nnc([C@H]2CCCO2)o1` (stereo partly shown) [Example 198], the EC50 is > 800 nM.

In the case of `O=C1Nc2ccccc2C(c2ccccc2)=NC1Nc1nnc(CCc2ccccc2)o1` (stereo not shown) [Example 199], the EC50 was > 800 nM.

Take `Cc1nc(-c2nnc(NC3N=C(c4ccccc4)c4ccccc4NC3=O)o2)ccc1C#N` (stereo not shown) [Example 200]: the EC50 was 400 to 800 nM.

For the compound `CN1C(=O)C(Nc2nnc(-c3ccc(F)cc3)o2)N=C(c2ccccc2)c2ccccc21` (stereo not shown) [Example 201], the EC50 is > 800 nM.

With `O=C1Nc2ccccc2C(c2ccccc2)=NC1Nc1nnc(-c2ccc(-n3ccc(C(F)(F)F)n3)cc2)o1` (stereo not shown) [Example 202], the EC50 is > 800 nM.

As to `O=C1Nc2ccccc2C(c2ccccc2)=NC1Nc1nnc(CC(F)(F)F)o1` (stereo not shown) [Example 203], the EC50 is > 800 nM.

`CC1(C)C[C@@H]1c1nnc(NC2N=C(c3ccccc3)c3ccccc3NC2=O)o1` (stereo partly shown) [Example 205]: the EC50 was > 800 nM.

For the compound `CC1(C)CC(c2nnc(NC3N=C(c4ccccc4)c4ccccc4NC3=O)o2)C1` (stereo not shown) [Example 206], the EC50 was > 800 nM.

With `O=C1Nc2ccccc2C(c2ccccc2)=NC1Nc1nnc([C@@H]2CCCO2)o1` (stereo partly shown) [Example 207], the EC50 was > 800 nM.

As for `CC(C)(Cc1ccccc1)c1nnc(NC2N=C(c3ccccc3)c3ccccc3NC2=O)o1` (stereo not shown) [Example 208], the EC50 is > 800 nM.

As to `CN(c1nnc(-c2ccc(F)cc2)o1)C1N=C(c2ccccc2)c2ccccc2NC1=O` (stereo not shown) [Example 209], the EC50 was > 800 nM.

Turning to `CN1CCN(c2ccc(-c3nnc(NC4N=C(c5ccccc5)c5ccccc5NC4=O)o3)cc2)CC1` (stereo not shown) [Example 210], the EC50 was > 800 nM.

As to `O=C1Nc2ccccc2C(c2ccccc2)=NC1Nc1nnc(-c2ccc(-n3cccn3)nc2)o1` (stereo not shown) [Example 211], the EC50 is > 800 nM.

For `O=C1Nc2ccccc2C(c2ccccc2)=NC1Nc1nnc(-c2cccc(-n3ccnc3)c2)o1` (stereo not shown) [Example 212], the EC50 is > 800 nM.

As for `CC(C)(O)c1nnc(NC2N=C(c3ccccc3)c3ccccc3NC2=O)o1` (stereo not shown) [Example 213], the EC50 was > 800 nM.

In the case of `O=C1Nc2ccccc2C(c2ccccc2)=NC1Nc1nnc(C2CC(F)(F)C2)o1` (stereo not shown) [Example 214], the EC50 is > 800 nM.

For `O=C1Nc2ccccc2C(c2ccccc2)=NC1Nc1nnc(C2CCOC2)o1` (stereo not shown) [Example 215], the EC50 was > 800 nM.

Consider `O=C1Nc2ccccc2C(c2ccccc2)=NC1Nc1nnc(-c2ccc(-n3cncn3)c(F)c2)o1` (stereo not shown) [Example 216], for which the EC50 was in the range of 400 to 800 nM.

With `Cc1cc(-c2nnc(NC3N=C(c4ccccc4)c4ccccc4NC3=O)o2)ccc1-n1cncn1` (stereo not shown) [Example 217], the EC50 was in the range of 400 to 800 nM.

In the case of `Cc1cc(-n2cncn2)ccc1-c1nnc(NC2N=C(c3ccccc3)c3ccccc3NC2=O)o1` (stereo not shown) [Example 218], the concentration for a half-maximal effect (EC50) is > 800 nM.

As for `COc1cc(-c2nnc(NC3N=C(c4ccccc4)c4ccccc4NC3=O)o2)ccc1-n1cnc(C)c1` (stereo not shown) [Example 219], the EC50 is > 800 nM.
